Test results as given in US20070128217A1 (priority 2003, published 2007).

Legend:
[1] = test system: control sera (pooled serum of ten healthy LUMC hospital workers; commercial negative donor pooled serum from the Dutch bloodbank); format: binding, human; parameters: Binding of Control serum LUMC to linear peptides / Binding of Control serum Blood-bank to linear peptides / Binding of Control serum LUMC to looped peptides / Binding of Control Serum Blood-Bank to Looped peptides / Binding of Control serum LUMC to linear peptides of the protein M of SARS-CoV Urbani / Binding of Control serum Blood-bank to linear peptides of the protein M of SARS-CoV Urbani / Binding of Control serum LUMC to looped peptides of the protein M of SARS-CoV Urbani / Binding of Control Serum Blood-Bank to Looped peptides of the protein M of SARS-CoV Urbani: unit not given here
[2] = test system: recombinant human anti-SARS-CoV antibody 03-018; format: binding; parameters: Binding of antibody 03-018 to linear peptides of the N protein of SARS-CoV Urbani / Binding of antibody 03-018 to looped/cyclic peptides of the N protein of SARS-CoV Urbani: unit not given here
[3] = test system: rabbit serum obtained by immunizing a rabbit with the SARS-CoV strain Frankfurt 1; format: binding; parameters: Binding of a rabbit serum to linear peptides / Binding of a rabbit serum to looped peptides / Rabbit serum linear peptides / Rabbit serum looped peptides / Binding of a rabbit serum to linear peptides of protein N of SARS-CoV Urbani (Rabbit serum linear peptides) / Binding of a rabbit serum to looped/cyclic peptides of protein N of SARS-CoV Urbani (Rabbit serum looped peptides): unit not given here
[4] = test system: antibodies in sera from SARS patients (sera 1a, 1b, 2, 6, 37, 62, London, SARS-yellow, SARS-green); format: binding, human; parameters: Binding of serum 6 to linear peptides of protein X1 of SARS-CoV Urbani / Binding of serum 37 to linear peptides of protein X1 of SARS-CoV Urbani / Binding of serum 6 to looped/cyclic peptide (PEPSCAN-ELISA) / Binding of serum 37 to looped/cyclic peptide (PEPSCAN-ELISA) / Binding of serum 37 to looped/cyclic peptides of protein X1 of SARS-CoV Urbani / Binding of serum 6 to linear peptides of protein X2 / Binding of serum 37 to linear peptides of protein X2 / Binding of serum 37 to looped/cyclic peptides of protein X2 of SARS-CoV Urbani / Binding of serum 6 to linear peptides of protein M of SARS-CoV Urbani / Binding of serum 37 to linear peptides of protein M of SARS-CoV Urbani / Binding of serum 6 to looped/cyclic peptides of protein M of SARS-CoV Urbani / Binding of serum 37 to looped/cyclic peptides of protein M of SARS-CoV Urbani / Binding of serum 6 to linear peptides of protein X3 of SARS-CoV Urbani / Binding of serum 37 to linear peptides of protein X3 of SARS-CoV Urbani / Binding of serum 37 to looped/cyclic peptides of protein X3 of SARS-CoV Urbani / Binding of serum 6 to linear peptides of protein X4 of SARS-CoV Urbani / Binding of serum 37 to linear peptides of protein X4 of SARS-CoV Urbani / Binding of serum 37 to looped/cyclic peptides of protein X4 of SARS-CoV Urbani / Binding of serum 6 to linear peptides of protein X5 of SARS-CoV Urbani / Binding of serum 37 to linear peptides of protein X5 of SARS-CoV Urbani / Binding of serum 37 to looped/cyclic peptides of protein X5 of SARS-CoV Urbani / Binding of serum 6 to linear peptides of protein N of SARS-CoV Urbani / Binding of serum 37 to linear peptides of protein N of SARS-CoV Urbani / Binding of serum 6 to linear peptide (PEPSCAN-ELISA) / Binding of serum 1a to looped/cyclic peptides of protein N of SARS-CoV Urbani / Binding of serum 1b to looped/cyclic peptides of protein N of SARS-CoV Urbani / Binding of serum 2 to looped/cyclic peptides of protein N of SARS-CoV Urbani / Binding of serum 6 to looped/cyclic peptides of protein N of SARS-CoV Urbani / Binding of serum 37 to looped/cyclic peptides of protein N of SARS-CoV Urbani / Binding of serum 62 to looped/cyclic peptides of protein N of SARS-CoV Urbani / Binding of serum London to looped/cyclic peptides of protein N of SARS-CoV Urbani / Binding of serum SARS-green to looped/cyclic peptides of protein N of SARS-CoV Urbani: unit not given here

Sequence	Binding of Control Serum Blood-Bank to Looped peptides [1]	Binding of Control serum Blood-bank to linear peptides [1]	Binding of Control serum LUMC to linear peptides [1]	Binding of Control serum LUMC to looped peptides [1]	Binding of antibody 03-018 to linear peptides of the N protein of SARS-CoV Urbani [2]	Binding of antibody 03-018 to looped/cyclic peptides of the N protein of SARS-CoV Urbani [2]	Binding of a rabbit serum to linear peptides of protein N of SARS-CoV Urbani (Rabbit serum linear peptides) [3]	Binding of a rabbit serum to looped/cyclic peptides of protein N of SARS-CoV Urbani (Rabbit serum looped peptides) [3]	Binding of serum 1a to looped/cyclic peptides of protein N of SARS-CoV Urbani [4]	Binding of serum 1b to looped/cyclic peptides of protein N of SARS-CoV Urbani [4]	Binding of serum 2 to looped/cyclic peptides of protein N of SARS-CoV Urbani [4]	Binding of serum 6 to looped/cyclic peptides of protein N of SARS-CoV Urbani [4]	Binding of serum 37 to looped/cyclic peptides of protein N of SARS-CoV Urbani [4]	Binding of serum 62 to looped/cyclic peptides of protein N of SARS-CoV Urbani [4]	Binding of serum London to looped/cyclic peptides of protein N of SARS-CoV Urbani [4]	Binding of serum SARS-green to looped/cyclic peptides of protein N of SARS-CoV Urbani [4]	Binding of serum SARS-yellow to looped/cyclic peptides of protein N of SARS-CoV Urbani [4]	further results
GQGVPINTNSGPDDQ	0.5	0.5	0.5	0.3	0.1	0.2	0.1	0.0	0.2	0.1	0.3	0.1	0.4	0.1	0.3	0.1	0.1	Binding of serum 1a to linear peptides of protein N of SARS-CoV Urbani [4]: 0.3; Binding of serum 1b to linear peptides of protein N of SARS-CoV Urbani [4]: 0.1; Binding of serum 2 to linear peptides of protein N of SARS-CoV Urbani [4]: 0.2; Binding of serum 6 to linear peptides of protein N of SARS-CoV Urbani [4]: 0.2; Binding of serum 37 to linear peptides of protein N of SARS-CoV Urbani [4]: 0.8; Binding of serum 62 to linear peptides of protein N of SARS-CoV Urbani [4]: 0.6; Binding of serum London to linear peptides of protein N of SARS-CoV Urbani [4]: 0.6; Binding of serum SARS-green to linear peptides of protein N of SARS-CoV Urbani [4]: 0.5; Binding of serum SARS-yellow to linear peptides of protein N of SARS-CoV Urbani [4]: 0.6
GQQQQGQTVTKKSAA	0.5	0.9	0.9	0.5	0.1	0.2	0.2	0.1	0.2	0.1	0.3	0.1	0.4	0.4	0.3	0.1	0.1	Binding of serum 1a to linear peptide (PEPSCAN-ELISA) [4]: 0.3; Binding of serum 1b to linear peptide (PEPSCAN-ELISA) [4]: 0.1; Binding of serum 2 to linear peptide (PEPSCAN-ELISA) [4]: 0.3; Binding of serum 6 to linear peptide (PEPSCAN-ELISA) [4]: 0.3; Binding of serum 37 to linear peptide (PEPSCAN-ELISA) [4]: 0.8; Binding of serum 62 to linear peptide (PEPSCAN-ELISA) [4]: 0.8; Binding of serum London to linear peptide (PEPSCAN-ELISA) [4]: 0.5; Binding of serum SARS-green to linear peptide (PEPSCAN-ELISA) [4]: 0.1; Binding of serum SARS-yellow to linear peptide (PEPSCAN-ELISA) [4]: 0.5
GQTVTKKSAAEASKK	0.4	0.7	0.7	0.3	0.1	0.2	0.2	0.2	0.2	0.1	0.2	0.1	0.4	0.2	0.3	0.0	0.2	Recognition of the peptide by sera of SARS-CoV infected individuals, and form (linear, looped/cyclic) in which it is recognized [4]: recognized in linear form
